Assay results as given in ChEMBL document CHEMBL1201862, “PubChem BioAssay data set” (2004).
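Exposure lasted 48 hours, with cells grown in 96-well plates and compounds tested at five concentrations. The concentration for 50% growth inhibition is given as GI50.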 Active and inactive are the calls of the source. Rule as the data show it: active = GI50 up to about 1.1 µM and inactive = higher.

Assays:
Assay in all cases: inhibition of tumour cell growth, NCI panel, 48 h
NCI-H226 = tested on: NCI-H226
UO-31 = tested on: UO-31
U-251 = tested on: U-251
SF-268 = tested on: SF-268
TK-10 = tested on: TK-10
SF-295 = tested on: SF-295
HT-29 = tested on: HT-29
RPMI-8226 = tested on: RPMI-8226
OVCAR-5 = tested on: OVCAR-5
SNB-19 = tested on: SNB-19
LOX IMVI = tested on: LOX IMVI
SW-620 = tested on: SW-620
Hs-578T = tested on: Hs-578T
NCI-H522 = tested on: NCI-H522
MDA-MB-231 = tested on: MDA-MB-231
UACC-62 = tested on: UACC-62
SNB-75 = tested on: SNB-75
MDA-N = tested on: MDA-N
Malme-3M = tested on: Malme-3M
UACC-257 = tested on: UACC-257
HCC 2998 = tested on: HCC 2998
SK-MEL-5 = tested on: SK-MEL-5
K562 = tested on: K562
HOP-92 = tested on: HOP-92
OVCAR-8 = tested on: OVCAR-8
NCI-H460 = tested on: NCI-H460
OVCAR-3 = tested on: OVCAR-3
RXF 393 = tested on: RXF 393
SR = tested on: SR
HOP-62 = tested on: HOP-62
CAKI-1 = tested on: CAKI-1
HL-60 = tested on: HL-60
BT-549 = tested on: BT-549
NCI/ADR-RES = tested on: NCI/ADR-RES
DU-145 = tested on: DU-145
MOLT-4 = tested on: MOLT-4
A498 = tested on: A498
PC-3 = tested on: PC-3
SK-MEL-28 = tested on: SK-MEL-28
M14 = tested on: M14
OVCAR-4 = tested on: OVCAR-4
EKVX = tested on: EKVX
COLO 205 = tested on: COLO 205
HCT-15 = tested on: HCT-15
ACHN = tested on: ACHN
HCT-116 = tested on: HCT-116
T47D = tested on: T47D
KM12 = tested on: KM12
SK-MEL-2 = tested on: SK-MEL-2
786-0 = tested on: 786-0
MCF7 = tested on: MCF7
NCI-H23 = tested on: NCI-H23
MDA-MB-435 = tested on: MDA-MB-435
CCRF-CEM = tested on: CCRF-CEM
A549 = tested on: A549
SN12C = tested on: SN12C
SK-OV-3 = tested on: SK-OV-3
IGROV-1 = tested on: IGROV-1
SF-539 = tested on: SF-539

c1ccc([P+](Cc2ccc(C[P+](c3ccccc3)(c3ccccc3)c3ccccc3)s2)(c2ccccc2)c2ccccc2)cc1
GI50 (NCI-H226): > 100 µM (inactive) | GI50 (UO-31): > 100 µM (inactive) | GI50 (U-251): > 100 µM (inactive) | GI50 (SF-268): > 100 µM (inactive) | GI50 (TK-10): > 100 µM (inactive) | GI50 (SF-295): > 100 µM (inactive) | GI50 (HT-29): > 100 µM (inactive) | GI50 (RPMI-8226): > 100 µM (inactive) | GI50 (OVCAR-5): > 100 µM (inactive) | GI50 (SNB-19): > 100 µM (inactive) | GI50 (LOX IMVI): > 100 µM (inactive) | GI50 (SW-620): > 100 µM (inactive) | GI50 (Hs-578T): > 100 µM (inactive) | GI50 (NCI-H522): > 100 µM (inactive) | GI50 (MDA-MB-231): > 100 µM (inactive) | GI50 (UACC-62): > 100 µM (inactive) | GI50 (SNB-75): > 100 µM (inactive) | GI50 (MDA-N): > 100 µM (inactive) | GI50 (Malme-3M): > 100 µM (inactive) | GI50 (UACC-257): > 100 µM (inactive) | GI50 (HCC 2998): > 100 µM (inactive) | GI50 (SK-MEL-5): > 100 µM (inactive) | GI50 (K562): > 100 µM (inactive) | GI50 (HOP-92): > 100 µM (inactive) | GI50 (OVCAR-8): > 100 µM (inactive) | GI50 (NCI-H460): > 100 µM (inactive) | GI50 (OVCAR-3): > 100 µM (inactive) | GI50 (RXF 393): > 100 µM (inactive) | GI50 (SR): > 100 µM (inactive) | GI50 (HOP-62): > 100 µM (inactive) | GI50 (CAKI-1): > 100 µM (inactive) | GI50 (HL-60): > 100 µM (inactive) | GI50 (BT-549): > 100 µM (inactive) | GI50 (NCI/ADR-RES): > 100 µM (inactive) | GI50 (DU-145): > 100 µM (inactive) | GI50 (MOLT-4): > 100 µM (inactive) | GI50 (A498): > 100 µM (inactive) | GI50 (PC-3): > 100 µM (inactive) | GI50 (SK-MEL-28): > 100 µM (inactive) | GI50 (M14): > 100 µM (inactive) | GI50 (OVCAR-4): > 100 µM (inactive) | GI50 (EKVX): > 100 µM (inactive) | GI50 (COLO 205): > 100 µM (inactive) | GI50 (HCT-15): > 100 µM | GI50 (ACHN): > 100 µM (inactive) | GI50 (HCT-116): > 100 µM (inactive) | GI50 (T47D): > 100 µM (inactive) | GI50 (KM12): > 100 µM (inactive) | GI50 (SK-MEL-2): > 100 µM (inactive) | GI50 (786-0): > 100 µM (inactive) | GI50 (MCF7): > 100 µM (inactive) | GI50 (NCI-H23): > 100 µM (inactive) | GI50 (MDA-MB-435): > 100 µM (inactive) | GI50 (CCRF-CEM): > 100 µM (inactive) | GI50 (A549): > 100 µM (inactive) | GI50 (SN12C): > 100 µM (inactive) | GI50 (SK-OV-3): > 100 µM (inactive) | GI50 (IGROV-1): > 100 µM (inactive) | GI50 (SF-539): > 100 µM (inactive)

COc1ccccc1CCN1CCN(CCCc2ccccc2)CC1
GI50 (NCI-H226): 72.9 µM (inactive) | GI50 (UO-31): 46.3 µM (inactive) | GI50 (U-251): > 100 µM (inactive) | GI50 (SF-268): > 100 µM (inactive) | GI50 (TK-10): 75.5 µM (inactive) | GI50 (SF-295): 52.5 µM (inactive) | GI50 (HT-29): 28.8 µM (inactive) | GI50 (RPMI-8226): 39.4 µM (inactive) | GI50 (OVCAR-5): > 100 µM (inactive) | GI50 (SNB-19): > 100 µM (inactive) | GI50 (LOX IMVI): 64.6 µM (inactive) | GI50 (SW-620): > 100 µM (inactive) | GI50 (Hs-578T): > 100 µM (inactive) | GI50 (NCI-H522): 32.4 µM (inactive) | GI50 (MDA-MB-231): > 100 µM (inactive) | GI50 (UACC-62): > 100 µM (inactive) | GI50 (SNB-75): > 100 µM (inactive) | GI50 (MDA-N): 58.9 µM (inactive) | GI50 (Malme-3M): > 100 µM (inactive) | GI50 (UACC-257): 60.4 µM (inactive) | GI50 (HCC 2998): 47.3 µM (inactive) | GI50 (SK-MEL-5): 22.1 µM (inactive) | GI50 (K562): 34.5 µM (inactive) | GI50 (HOP-92): 0.524 µM (active) | GI50 (OVCAR-8): > 100 µM (inactive) | GI50 (NCI-H460): 54.3 µM (inactive) | GI50 (OVCAR-3): > 100 µM (inactive) | GI50 (RXF 393): 59.8 µM (inactive) | GI50 (SR): 32.7 µM (inactive) | GI50 (HOP-62): > 100 µM (inactive) | GI50 (CAKI-1): 91 µM (inactive) | GI50 (HL-60): 65.9 µM (inactive) | GI50 (BT-549): > 100 µM (inactive) | GI50 (NCI/ADR-RES): > 100 µM (inactive) | GI50 (DU-145): > 100 µM (inactive) | GI50 (MOLT-4): 89.7 µM (inactive) | GI50 (A498): 70.8 µM (inactive) | GI50 (PC-3): > 100 µM (inactive) | GI50 (SK-MEL-28): > 100 µM (inactive) | GI50 (M14): 24.2 µM (inactive) | GI50 (OVCAR-4): 89.7 µM (inactive) | GI50 (EKVX): > 100 µM (inactive) | GI50 (COLO 205): 28.5 µM (inactive) | GI50 (HCT-15): 42.6 µM | GI50 (ACHN): > 100 µM (inactive) | GI50 (HCT-116): 33 µM (inactive) | GI50 (T47D): 55.3 µM (inactive) | GI50 (KM12): 62.7 µM (inactive) | GI50 (SK-MEL-2): > 100 µM (inactive) | GI50 (786-0): 45.6 µM (inactive) | GI50 (MCF7): 79.6 µM (inactive) | GI50 (MDA-MB-435): 85.5 µM (inactive) | GI50 (CCRF-CEM): > 100 µM (inactive) | GI50 (A549): 85.7 µM (inactive) | GI50 (SN12C): 83.9 µM (inactive) | GI50 (SK-OV-3): > 100 µM (inactive) | GI50 (IGROV-1): > 100 µM (inactive) | GI50 (SF-539): > 100 µM (inactive)

COCn1c(C)c(C)c2c(=O)oc(=O)[nH]c21
GI50 (NCI-H226): > 100 µM (inactive) | GI50 (UO-31): > 100 µM (inactive) | GI50 (U-251): > 100 µM (inactive) | GI50 (SF-268): > 100 µM (inactive) | GI50 (TK-10): > 100 µM (inactive) | GI50 (SF-295): > 100 µM (inactive) | GI50 (HT-29): > 100 µM (inactive) | GI50 (RPMI-8226): > 100 µM (inactive) | GI50 (OVCAR-5): > 100 µM (inactive) | GI50 (SNB-19): > 100 µM (inactive) | GI50 (LOX IMVI): > 100 µM (inactive) | GI50 (SW-620): > 100 µM (inactive) | GI50 (Hs-578T): > 100 µM (inactive) | GI50 (NCI-H522): > 100 µM (inactive) | GI50 (MDA-MB-231): > 100 µM (inactive) | GI50 (UACC-62): > 100 µM (inactive) | GI50 (SNB-75): > 100 µM (inactive) | GI50 (MDA-N): > 100 µM (inactive) | GI50 (Malme-3M): > 100 µM (inactive) | GI50 (UACC-257): > 100 µM (inactive) | GI50 (HCC 2998): > 100 µM (inactive) | GI50 (SK-MEL-5): > 100 µM (inactive) | GI50 (K562): > 100 µM (inactive) | GI50 (HOP-92): > 100 µM (inactive) | GI50 (OVCAR-8): > 100 µM (inactive) | GI50 (NCI-H460): > 100 µM (inactive) | GI50 (RXF 393): > 100 µM (inactive) | GI50 (SR): > 100 µM (inactive) | GI50 (HOP-62): > 100 µM (inactive) | GI50 (CAKI-1): 8.24 µM (inactive) | GI50 (HL-60): 54.8 µM (inactive) | GI50 (BT-549): > 100 µM (inactive) | GI50 (NCI/ADR-RES): > 100 µM (inactive) | GI50 (DU-145): > 100 µM (inactive) | GI50 (MOLT-4): > 100 µM (inactive) | GI50 (A498): > 100 µM (inactive) | GI50 (PC-3): > 100 µM (inactive) | GI50 (SK-MEL-28): > 100 µM (inactive) | GI50 (M14): > 100 µM (inactive) | GI50 (OVCAR-4): > 100 µM (inactive) | GI50 (EKVX): > 100 µM (inactive) | GI50 (COLO 205): > 100 µM (inactive) | GI50 (HCT-15): > 100 µM | GI50 (ACHN): > 100 µM (inactive) | GI50 (HCT-116): > 100 µM (inactive) | GI50 (T47D): > 100 µM (inactive) | GI50 (KM12): > 100 µM (inactive) | GI50 (SK-MEL-2): > 100 µM (inactive) | GI50 (786-0): > 100 µM (inactive) | GI50 (MCF7): > 100 µM (inactive) | GI50 (NCI-H23): > 100 µM (inactive) | GI50 (MDA-MB-435): > 100 µM (inactive) | GI50 (CCRF-CEM): > 100 µM (inactive) | GI50 (A549): > 100 µM (inactive) | GI50 (SN12C): > 100 µM (inactive) | GI50 (SK-OV-3): > 100 µM (inactive) | GI50 (IGROV-1): > 100 µM (inactive) | GI50 (SF-539): > 100 µM (inactive)
